Source: the NIST ThermoML archive (doi:10.1016/j.tca.2016.11.011)
“And” between values parts separate entries of the source, which are not always exact repeats. Equal values may be shown once. Numbers after ± are expanded uncertainties.

Details: DSC

Row | Compound | Glass transition temperature
1 | O[C@@H]1[C@@H](O)[C@@H]2OC[C@@H](O2)[C@H]1O [1,6-anhydro-β-D-glucopyranose] | -24.7 ± 1 °C and -26.5 ± 1 °C
2 | CC(=O)Nc1ccc(O)cc1 [N-acetyl-p-aminophenol] | 24 ± 1 °C and 21.7 ± 1 °C
3 | COC(=O)C1=C(C)NC(C)=C(C(=O)OC)C1c1ccccc1[N+](=O)[O-] | 44.5 ± 1 °C and 42.2 ± 1 °C
